Experimental data: patent US20190358196A1, “PI 4-KINASE INHIBITOR AS A THERAPEUTIC FOR VIRAL HEPATITIS, CANCER, MALARIA. AUTOIMMUNE DISORDERS AND INFLAMMATION, AND A RADIOSENSITIZER AND IMMUNOSUPPRESSANT” (priority 2016, published 2019)

What was measured:
PI4Ka = PI4Ka (Homo sapiens, UniProt P42356); test: HotSpot lipid kinase inhibition assay
[1] = test system: cell culture-derived HCV (HCVcc)

Chain of PI4Ka (P42356 whole entry): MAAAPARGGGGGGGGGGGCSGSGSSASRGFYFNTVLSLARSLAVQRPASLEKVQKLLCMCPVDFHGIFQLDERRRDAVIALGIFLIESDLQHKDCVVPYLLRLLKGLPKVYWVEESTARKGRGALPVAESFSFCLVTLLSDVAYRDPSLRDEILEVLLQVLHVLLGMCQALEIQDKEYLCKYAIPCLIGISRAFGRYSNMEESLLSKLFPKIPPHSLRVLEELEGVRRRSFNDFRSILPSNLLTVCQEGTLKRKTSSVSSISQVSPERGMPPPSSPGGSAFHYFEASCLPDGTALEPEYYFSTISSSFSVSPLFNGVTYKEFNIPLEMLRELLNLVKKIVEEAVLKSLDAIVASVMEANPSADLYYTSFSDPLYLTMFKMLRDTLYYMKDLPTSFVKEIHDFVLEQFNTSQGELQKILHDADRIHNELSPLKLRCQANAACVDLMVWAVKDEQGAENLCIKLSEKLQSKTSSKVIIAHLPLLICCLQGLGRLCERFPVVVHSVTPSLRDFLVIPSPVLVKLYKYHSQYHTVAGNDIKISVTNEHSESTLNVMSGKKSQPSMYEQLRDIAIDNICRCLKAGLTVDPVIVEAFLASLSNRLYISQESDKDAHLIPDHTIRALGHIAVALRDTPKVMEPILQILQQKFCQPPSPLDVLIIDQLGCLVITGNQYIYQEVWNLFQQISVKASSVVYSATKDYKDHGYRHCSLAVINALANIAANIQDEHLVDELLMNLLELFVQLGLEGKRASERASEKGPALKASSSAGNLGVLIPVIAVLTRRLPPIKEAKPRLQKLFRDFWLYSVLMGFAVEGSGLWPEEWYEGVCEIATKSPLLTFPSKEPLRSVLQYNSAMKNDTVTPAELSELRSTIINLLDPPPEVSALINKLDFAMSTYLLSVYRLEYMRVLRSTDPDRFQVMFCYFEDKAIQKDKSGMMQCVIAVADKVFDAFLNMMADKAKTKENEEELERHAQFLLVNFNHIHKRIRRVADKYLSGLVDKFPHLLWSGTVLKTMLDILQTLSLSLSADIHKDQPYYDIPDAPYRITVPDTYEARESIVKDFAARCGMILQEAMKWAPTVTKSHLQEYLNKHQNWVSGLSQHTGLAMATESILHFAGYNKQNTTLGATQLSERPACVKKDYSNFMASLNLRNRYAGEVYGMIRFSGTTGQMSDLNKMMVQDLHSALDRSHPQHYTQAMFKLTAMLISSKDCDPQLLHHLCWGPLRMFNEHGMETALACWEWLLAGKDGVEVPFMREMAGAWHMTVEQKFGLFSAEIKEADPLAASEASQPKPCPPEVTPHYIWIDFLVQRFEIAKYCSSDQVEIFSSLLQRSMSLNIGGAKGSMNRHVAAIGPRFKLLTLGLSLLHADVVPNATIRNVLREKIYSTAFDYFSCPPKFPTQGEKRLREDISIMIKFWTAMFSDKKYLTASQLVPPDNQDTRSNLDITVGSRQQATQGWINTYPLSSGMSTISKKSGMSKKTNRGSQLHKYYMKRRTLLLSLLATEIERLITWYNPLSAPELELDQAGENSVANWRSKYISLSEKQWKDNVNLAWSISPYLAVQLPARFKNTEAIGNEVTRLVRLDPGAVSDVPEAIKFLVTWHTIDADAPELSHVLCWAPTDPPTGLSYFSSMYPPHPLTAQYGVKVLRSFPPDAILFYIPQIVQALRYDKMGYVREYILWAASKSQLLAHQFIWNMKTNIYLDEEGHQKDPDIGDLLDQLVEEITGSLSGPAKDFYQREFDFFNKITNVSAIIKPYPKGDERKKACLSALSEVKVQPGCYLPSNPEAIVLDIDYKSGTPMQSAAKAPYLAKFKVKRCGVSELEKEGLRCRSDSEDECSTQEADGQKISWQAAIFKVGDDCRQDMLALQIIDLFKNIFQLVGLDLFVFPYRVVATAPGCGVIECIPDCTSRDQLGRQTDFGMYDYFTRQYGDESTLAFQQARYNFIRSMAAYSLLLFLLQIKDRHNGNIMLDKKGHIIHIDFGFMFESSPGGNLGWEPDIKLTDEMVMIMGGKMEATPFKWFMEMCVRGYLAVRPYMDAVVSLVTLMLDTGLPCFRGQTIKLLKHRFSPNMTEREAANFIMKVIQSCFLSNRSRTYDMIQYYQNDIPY

Compound | IC50 (PI4Ka) | SI (CC50/EC50) [1]
Oc1cccc(-c2nc(N3CCOCC3)c3oc4ncccc4c3n2)c1 [PI-103] | 0.322 µM | 
Human interferon alpha-2b [rIFNa-2b] |  | >15.9
